Experimental data published in the supplement of paper PMC10307832.

Tests used:
Assay in all cases: relative viability (nuclei count vs DMSO), 5 days (fraction); higher = more cells survive
[1] = compound: CC1(C)CCC(CN2CCN(c3ccc(C(=O)NS(=O)(=O)c4ccc(NCC5CCOCC5)c([N+](=O)[O-])c4)c(Oc4cnc5[nH]ccc5c4)c3)CC2)=C(c2ccc(Cl)cc2)C1 [Venetoclax] + CC(=O)c1c(C)c2cnc(Nc3ccc(N4CCNCC4)cn3)nc2n(C2CCCC2)c1=O [Palbociclib] (partner 0.5 µM)
Procedure, shortened: (§1)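 Five library-drug doses in √10 steps were combined with a fixed anchor-drug dose, or a single drug was given alone, by pin tool to lung cancer cell lines in 1536-well plates the day after seeding. Nuclei were stained and counted after 5 days. Relative viability is the nuclei count in treated wells over that in vehicle wells, taken as the median of duplicate plates.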

[2] = compound: CC1(C)CCC(CN2CCN(c3ccc(C(=O)NS(=O)(=O)c4ccc(NCC5CCOCC5)c([N+](=O)[O-])c4)c(Oc4cnc5[nH]ccc5c4)c3)CC2)=C(c2ccc(Cl)cc2)C1 [Venetoclax] + NC(=O)Nc1cc(-c2cccc(F)c2)sc1C(=O)N[C@H]1CCCNC1 [AZD7762] (partner 0.2 µM)
Procedure, shortened: as §1

[3] = compound: Cn1cnc2c(F)c(Nc3ccc(Br)cc3Cl)c(C(=O)NOCCO)cc21 [Selumetinib] + C[C@@H](Oc1cc(-c2cnn(C3CCNCC3)c2)cnc1N)c1c(Cl)ccc(F)c1Cl [Crizotinib] (partner 1 µM)
Procedure, shortened: as §1

[4] = compound: Cn1cnc2c(F)c(Nc3ccc(Br)cc3Cl)c(C(=O)NOCCO)cc21 [Selumetinib] + Nc1ncn([C@H]2C[C@H](O)[C@@H](CO)O2)c(=O)n1 [Decitabine] (partner 2 µM)
Procedure, shortened: as §1

LXF-289
relative viability ([1]; first compound 0.01 µM): 0.624 | relative viability ([1]; first compound 0.03162 µM): 0.592 | relative viability ([1]; first compound 0.1 µM): 0.631 | relative viability ([1]; first compound 0.3162 µM): 0.556 | relative viability ([1]; first compound 1 µM): 0.552 | relative viability ([2]; first compound 0.01 µM): 1.19 | relative viability ([2]; first compound 0.03162 µM): 1.06 | relative viability ([2]; first compound 0.1 µM): 1.02 | relative viability ([2]; first compound 0.3162 µM): 1.06 | relative viability ([2]; first compound 1 µM): 1.01 | relative viability ([3]; first compound 0.02 µM): 0.872 | relative viability ([3]; first compound 0.06325 µM): 0.7 | relative viability ([3]; first compound 0.2 µM): 0.664 | relative viability ([3]; first compound 0.6325 µM): 0.616 | relative viability ([4]; first compound 0.02 µM): 0.356 | relative viability ([4]; first compound 0.06325 µM): 0.418 | relative viability ([4]; first compound 0.2 µM): 0.36 | relative viability ([4]; first compound 0.6325 µM): 0.437

LC-2-ad
relative viability ([1]; first compound 0.01 µM): 0.456 | relative viability ([1]; first compound 0.03162 µM): 0.532 | relative viability ([1]; first compound 0.1 µM): 0.465 | relative viability ([1]; first compound 0.3162 µM): 0.491 | relative viability ([1]; first compound 1 µM): 0.508 | relative viability ([2]; first compound 0.01 µM): 0.992 | relative viability ([2]; first compound 0.03162 µM): 0.856 | relative viability ([2]; first compound 0.1 µM): 0.809 | relative viability ([2]; first compound 0.3162 µM): 0.845 | relative viability ([2]; first compound 1 µM): 0.802 | relative viability ([3]; first compound 0.02 µM): 0.397 | relative viability ([3]; first compound 0.06325 µM): 0.446 | relative viability ([3]; first compound 0.2 µM): 0.431 | relative viability ([3]; first compound 0.6325 µM): 0.405 | relative viability ([4]; first compound 0.02 µM): 0.73 | relative viability ([4]; first compound 0.06325 µM): 0.817 | relative viability ([4]; first compound 0.2 µM): 0.781 | relative viability ([4]; first compound 0.6325 µM): 0.776

NCI-H441
relative viability ([1]; first compound 0.01 µM): 0.218 | relative viability ([1]; first compound 0.03162 µM): 0.27 | relative viability ([1]; first compound 0.1 µM): 0.241 | relative viability ([1]; first compound 0.3162 µM): 0.2 | relative viability ([1]; first compound 1 µM): 0.18 | relative viability ([2]; first compound 0.01 µM): 1.14 | relative viability ([2]; first compound 0.03162 µM): 1.27 | relative viability ([2]; first compound 0.1 µM): 1.05 | relative viability ([2]; first compound 0.3162 µM): 1.4 | relative viability ([2]; first compound 1 µM): 1.09 | relative viability ([3]; first compound 0.02 µM): 0.724 | relative viability ([3]; first compound 0.06325 µM): 0.858 | relative viability ([3]; first compound 0.2 µM): 0.78 | relative viability ([3]; first compound 0.6325 µM): 0.556 | relative viability ([4]; first compound 0.02 µM): 0.244 | relative viability ([4]; first compound 0.06325 µM): 0.224 | relative viability ([4]; first compound 0.2 µM): 0.207 | relative viability ([4]; first compound 0.6325 µM): 0.268

HOP-62
relative viability ([1]; first compound 0.01 µM): 0.43 | relative viability ([1]; first compound 0.03162 µM): 0.462 | relative viability ([1]; first compound 0.1 µM): 0.373 | relative viability ([1]; first compound 0.3162 µM): 0.427 | relative viability ([1]; first compound 1 µM): 0.4 | relative viability ([2]; first compound 0.01 µM): 0.486 | relative viability ([2]; first compound 0.03162 µM): 0.841 | relative viability ([2]; first compound 0.1 µM): 0.522 | relative viability ([2]; first compound 0.3162 µM): 0.726 | relative viability ([2]; first compound 1 µM): 0.494 | relative viability ([3]; first compound 0.02 µM): 0.841 | relative viability ([3]; first compound 0.06325 µM): 0.877 | relative viability ([3]; first compound 0.2 µM): 0.909 | relative viability ([3]; first compound 0.6325 µM): 0.515 | relative viability ([4]; first compound 0.02 µM): 0.164 | relative viability ([4]; first compound 0.06325 µM): 0.278 | relative viability ([4]; first compound 0.2 µM): 0.238 | relative viability ([4]; first compound 0.6325 µM): 0.232

NCI-H1755
relative viability ([1]; first compound 0.01 µM): 0.463 | relative viability ([1]; first compound 0.03162 µM): 0.469 | relative viability ([1]; first compound 0.1 µM): 0.481 | relative viability ([1]; first compound 0.3162 µM): 0.461 | relative viability ([1]; first compound 1 µM): 0.448 | relative viability ([2]; first compound 0.01 µM): 0.445 | relative viability ([2]; first compound 0.03162 µM): 0.471 | relative viability ([2]; first compound 0.1 µM): 0.379 | relative viability ([2]; first compound 0.3162 µM): 0.386 | relative viability ([2]; first compound 1 µM): 0.411 | relative viability ([3]; first compound 0.02 µM): 0.895 | relative viability ([3]; first compound 0.06325 µM): 0.765 | relative viability ([3]; first compound 0.2 µM): 0.802 | relative viability ([3]; first compound 0.6325 µM): 0.842 | relative viability ([4]; first compound 0.02 µM): 0.716 | relative viability ([4]; first compound 0.06325 µM): 0.729 | relative viability ([4]; first compound 0.2 µM): 0.662 | relative viability ([4]; first compound 0.6325 µM): 0.73

LOU-NH91
relative viability ([1]; first compound 0.01 µM): 0.504 | relative viability ([1]; first compound 0.03162 µM): 0.546 | relative viability ([1]; first compound 0.1 µM): 0.505 | relative viability ([1]; first compound 0.3162 µM): 0.516 | relative viability ([1]; first compound 1 µM): 0.519 | relative viability ([2]; first compound 0.01 µM): 0.766 | relative viability ([2]; first compound 0.03162 µM): 0.8 | relative viability ([2]; first compound 0.1 µM): 0.723 | relative viability ([2]; first compound 0.3162 µM): 0.777 | relative viability ([2]; first compound 1 µM): 0.63 | relative viability ([3]; first compound 0.02 µM): 0.709 | relative viability ([3]; first compound 0.06325 µM): 0.715 | relative viability ([3]; first compound 0.2 µM): 0.683 | relative viability ([3]; first compound 0.6325 µM): 0.677 | relative viability ([4]; first compound 0.02 µM): 0.782 | relative viability ([4]; first compound 0.06325 µM): 0.777 | relative viability ([4]; first compound 0.2 µM): 0.723 | relative viability ([4]; first compound 0.6325 µM): 0.751

LU99A
relative viability ([1]; first compound 0.01 µM): 0.377 | relative viability ([1]; first compound 0.03162 µM): 0.465 | relative viability ([1]; first compound 0.1 µM): 0.384 | relative viability ([1]; first compound 0.3162 µM): 0.39 | relative viability ([1]; first compound 1 µM): 0.427 | relative viability ([2]; first compound 0.01 µM): 0.343 | relative viability ([2]; first compound 0.03162 µM): 0.391 | relative viability ([2]; first compound 0.1 µM): 0.251 | relative viability ([2]; first compound 0.3162 µM): 0.367 | relative viability ([2]; first compound 1 µM): 0.307 | relative viability ([3]; first compound 0.02 µM): 0.615 | relative viability ([3]; first compound 0.06325 µM): 0.556 | relative viability ([3]; first compound 0.2 µM): 0.558 | relative viability ([3]; first compound 0.6325 µM): 0.544 | relative viability ([4]; first compound 0.02 µM): 0.982 | relative viability ([4]; first compound 0.06325 µM): 0.905 | relative viability ([4]; first compound 0.2 µM): 0.91 | relative viability ([4]; first compound 0.6325 µM): 0.759

PC-14
relative viability ([1]; first compound 0.01 µM): 0.521 | relative viability ([1]; first compound 0.03162 µM): 0.514 | relative viability ([1]; first compound 0.1 µM): 0.546 | relative viability ([1]; first compound 0.3162 µM): 0.574 | relative viability ([1]; first compound 1 µM): 0.437 | relative viability ([2]; first compound 0.01 µM): 0.346 | relative viability ([2]; first compound 0.03162 µM): 0.361 | relative viability ([2]; first compound 0.1 µM): 0.315 | relative viability ([2]; first compound 0.3162 µM): 0.413 | relative viability ([2]; first compound 1 µM): 0.301 | relative viability ([3]; first compound 0.02 µM): 0.867 | relative viability ([3]; first compound 0.06325 µM): 0.814 | relative viability ([3]; first compound 0.2 µM): 0.961 | relative viability ([3]; first compound 0.6325 µM): 0.949 | relative viability ([4]; first compound 0.02 µM): 0.241 | relative viability ([4]; first compound 0.06325 µM): 0.2 | relative viability ([4]; first compound 0.2 µM): 0.227 | relative viability ([4]; first compound 0.6325 µM): 0.179

NCI-H2126
relative viability ([1]; first compound 0.01 µM): 0.368 | relative viability ([1]; first compound 0.03162 µM): 0.34 | relative viability ([1]; first compound 0.1 µM): 0.363 | relative viability ([1]; first compound 0.3162 µM): 0.374 | relative viability ([1]; first compound 1 µM): 0.336 | relative viability ([2]; first compound 0.01 µM): 1.06 | relative viability ([2]; first compound 0.03162 µM): 1.01 | relative viability ([2]; first compound 0.1 µM): 0.932 | relative viability ([2]; first compound 0.3162 µM): 1.02 | relative viability ([2]; first compound 1 µM): 1 | relative viability ([3]; first compound 0.02 µM): 1.01 | relative viability ([3]; first compound 0.06325 µM): 1 | relative viability ([3]; first compound 0.2 µM): 0.913 | relative viability ([3]; first compound 0.6325 µM): 0.887 | relative viability ([4]; first compound 0.02 µM): 0.559 | relative viability ([4]; first compound 0.06325 µM): 0.513 | relative viability ([4]; first compound 0.2 µM): 0.564 | relative viability ([4]; first compound 0.6325 µM): 0.56
